For 86 compounds, melting point results are on record in patent US6350749B1, “Aminoguanidine hydrazone derivatives, process for producing the same and drugs thereof” (Takeda Chemical Industries, Ltd., priority 1998, dated 2002).

In the case of `Cl.N=C(N)NN=C1CC(c2ccccc2)Cc2[nH]ccc21` (centres unmarked), the melting point was 192 to 194 °C.

Turning to `Cl.N=C(N)NN=C1CC(c2ccccc2)Cc2c1ccn2Cc1ccccc1` (centres unmarked), the melting point was 142 °C (dec.).

`Cc1ccnc2c1C(=NNC(=N)N)CC(c1ccsc1)C2.Cl` (centres unmarked) yielded a melting point of at least 300 °C.

Take `Cc1ccnc2c1C(=NNC(=N)N)CC(c1ccsc1Cl)C2.Cl` (centres unmarked): the melting point was 281 to 283 °C (dec.).

As to `Cc1ccnc2c1C(=NNC(=N)N)CC(c1cc(Cl)sc1Cl)C2.Cl` (centres unmarked), the melting point was at least 300 °C.

As for `Cc1ccnc2c1C(=NNC(=N)NO)CC(c1ccsc1)C2.Cl` (centres unmarked), the melting point was 201 to 202 °C (dec.).

`Cl.N=C(N)N/N=C1\CC(c2ccccc2)Cc2occ(C(N)=O)c21` (centres unmarked): the melting point was 294 °C (dec.).

Regarding `Cc1ccnc2c1C(=NNC(=N)N)CC(c1cc(Cl)sc1Cl)C2.O=S(=O)(O)O` (centres unmarked), the melting point lay within 239 to 242 °C.

For the compound `Cc1ccnc2c1C(=NNC(=N)N)CC(c1cc(Cl)sc1Cl)C2.O=[N+]([O-])O` (centres unmarked), the melting point is 167 °C (dec.).

On to `CS(=O)(=O)n1ccc2c1CC(c1ccccc1)CC2=NNC(=N)N.Cl` (centres unmarked), for which the melting point is 270 °C (dec.).

`Cc1ccnc2c1C(=NNC(=N)N)CC(c1cc(Cl)ccc1Cl)C2.Cl` (centres unmarked) returned a melting point of at least 300 °C.

`Cc1cc(Cl)sc1C1CC(=NNC(=N)N)c2c(C)ccnc2C1.Cl` (centres unmarked) gave a melting point of 193 to 196 °C.

The compound `Cc1ccnc2c1C(=NNC(=N)NO)CC(c1ccsc1Br)C2.Cl` (centres unmarked) gave a melting point of 197 to 198 °C.

Take `Cc1ccnc2c1C(=NNC(=N)NO)CC(c1cc(Br)sc1Br)C2.Cl` (centres unmarked): the melting point was 194 to 196 °C (dec.).

Regarding `Cc1cnnc2c1C(=NNC(=N)N)CC(c1ccsc1)C2.Cl` (centres unmarked), the melting point was 278 to 280 °C (dec.).

`Cc1cc(=O)[nH]c2c1C(=NNC(=N)N)CC(c1ccsc1)C2.Cl` (centres unmarked) displayed a melting point of at least 300 °C.

Consider `CCc1cn(S(C)(=O)=O)c2c1C(=NNC(=N)N)CC(c1ccccc1)C2.Cl` (centres unmarked), for which the melting point was 260 °C (dec.).

On to `CS(=O)(=O)O.Cc1ccnc2c1C(=NNC(=N)N)CC(c1cc(Cl)ccc1Cl)C2` (centres unmarked), for which the melting point was 248 °C (dec.).

On to `Cl.N=C(N)NN=C1CC(c2ccccc2Cl)Cc2nncc(-c3ccc(Cl)cc3)c21` (centres unmarked), for which the melting point was 196 °C (dec.).

With `Cl.N=C(N)NN=C1CC(c2ccccc2Cl)Cc2[nH]nc(Nc3ccccc3)c21` (centres unmarked), the melting point was 208 to 210 °C.

With `Cl.N=C(N)NN=C1CC(c2ccccc2Cl)Cc2[nH]nc(-c3ccccc3)c21` (centres unmarked), the melting point is 185 °C (dec.).

Compound `COCc1n[nH]c2c1C(=NNC(=N)N)CC(c1ccccc1Cl)C2.Cl` (centres unmarked) yielded a melting point of 210 to 212 °C.

The compound `Cc1nn(Cc2ccccc2)c2c1C(=NNC(=N)N)CC(c1ccccc1Cl)C2.Cl` (centres unmarked) showed a melting point of 151 to 153 °C.

In turn, `Cc1ccccc1C1CC(=NNC(=N)N)c2c(C)cn(S(C)(=O)=O)c2C1.Cl` (centres unmarked) came in with a melting point of 228 to 230 °C.

`Cc1nn(CCc2ccccc2)c2c1C(=NNC(=N)N)CC(c1ccccc1Cl)C2.Cl` (centres unmarked) registered a melting point of 152 to 154 °C.

With `Cc1c2c(nn1CCc1ccccc1)CC(c1ccccc1Cl)CC2=NNC(=N)N.Cl` (centres unmarked), the melting point is 185 °C (dec.).

With `Cc1nn(CCCc2ccccc2)c2c1C(=NNC(=N)N)CC(c1ccccc1Cl)C2.Cl` (centres unmarked), the melting point was 210 °C (dec.).

Compound `Cc1c2c(nn1CCCc1ccccc1)CC(c1ccccc1Cl)CC2=NNC(=N)N.Cl` (centres unmarked) came in with a melting point of 170 to 180 °C.

The compound `Cc1cnnc2c1C(=NNC(=N)NO)CC(c1cc(Cl)sc1Cl)C2.Cl` (centres unmarked) gave a melting point of 176 to 178 °C.

For the compound `Cc1cnnc2c1C(=NNC(=N)NO)CC(c1ccccc1Cl)C2.Cl` (centres unmarked), the melting point is 210 °C (dec.).

As to `Cc1cc[n+]([O-])c2c1C(=NNC(=N)N)CC(c1cc(Cl)sc1Cl)C2.Cl` (centres unmarked), the melting point was at least 300 °C.

As for `Cc1cn[n+]([O-])c2c1C(=NNC(=N)N)CC(c1ccccc1Cl)C2.Cl` (centres unmarked), the melting point was 283 to 284 °C.

As to `Cc1cn(S(C)(=O)=O)c2c1C(=NNC(=N)N)CC(c1ccccc1F)C2.Cl` (centres unmarked), the melting point is 286 °C (dec.).

Regarding `Cc1c[n+]([O-])nc2c1C(=NNC(=N)N)CC(c1ccccc1Cl)C2.Cl` (centres unmarked), the melting point lay within 249 to 250 °C.

In turn, `Cc1cnnc2c1C(=NNC(=N)N)CC(c1cc(Cl)ccc1Cl)C2.Cl` (centres unmarked) gave a melting point of 256 to 258 °C.

For `Cc1ccc(Cl)c(C2CC(=NNC(=N)N)c3c(C)ccnc3C2)c1.Cl` (centres unmarked), the melting point lay within 240 to 243 °C.

`Cc1ccc(F)c(C2CC(=NNC(=N)N)c3c(C)ccnc3C2)c1.Cl` (centres unmarked): the melting point fell in the range of 230 to 235 °C.

With `Cc1ccc(Cl)cc1C1CC(=NNC(=N)N)c2c(C)ccnc2C1.Cl` (centres unmarked), the melting point is 215 to 220 °C.

Take `COc1ccc(Cl)cc1C1CC(=NNC(=N)N)c2c(C)ccnc2C1.Cl` (centres unmarked): the melting point lay in the range of 205 to 209 °C.

On to `Cc1ccnc2c1C(=NNC(=N)N)CC(c1cc(Cl)ccc1O)C2.Cl` (centres unmarked), for which the melting point is 202 °C (dec.).

In turn, `Cc1ccnc2c1C(=NNC(=N)N)CC(c1cc(F)ccc1O)C2.Cl` (centres unmarked) yielded a melting point of 264 to 266 °C.

For the compound `Cc1cn(S(C)(=O)=O)c2c1C(=NNC(=N)N)CC(c1ccccc1Cl)C2.Cl` (centres unmarked), the melting point is 258 °C (dec.).

With `Cc1ccnc2c1C(=NNC(=N)N)CC(c1cc(F)ccc1Cl)C2.Cl` (centres unmarked), the melting point was 268 °C (dec.).

The compound `Cc1ccc(Cl)c(C2CC(=NNC(=N)N)c3c(C)cnnc3C2)c1.Cl` (centres unmarked) yielded a melting point of 240 to 242 °C.

For the compound `Cc1ccc(F)cc1C1CC(=NNC(=N)N)c2c(C)cnnc2C1.Cl` (centres unmarked), the melting point was 240 °C (dec.).

In turn, `Cc1cnnc2c1C(=NNC(=N)N)CC(c1cc(Cl)ccc1F)C2.Cl` (centres unmarked) gave a melting point of at least 300 °C.

Turning to `Cc1cn(S(C)(=O)=O)c2c1C(=NNC(=N)N)CC(c1cccs1)C2.Cl` (centres unmarked), the melting point was 297 °C (dec.).

Compound `Cc1ccc(S(=O)(=O)n2ccc3c2CC(c2ccccc2)CC3=NNC(=N)N)cc1.Cl` (centres unmarked) gave a melting point of 252 to 256 °C.

Turning to `Cc1c[nH]c2c1C(=NNC(=N)N)CC(c1ccccc1)C2.Cl` (centres unmarked), the melting point was 176 °C (dec.).

Consider `COc1ccccc1C1CC(=NNC(=N)N)c2c(C)n[nH]c2C1.Cl` (centres unmarked), for which the melting point was 202 °C (dec.).

For `CCc1c[nH]c2c1C(=NNC(=N)N)CC(c1ccccc1)C2.Cl` (centres unmarked), the melting point fell in the range of 158 to 160 °C.

Regarding `Cc1coc2c1C(=NNC(=N)N)CC(c1ccccc1)C2.Cl` (centres unmarked), the melting point was 250 °C (dec.).

`Cc1coc2c1/C(=N/NC(=N)N)CC(c1cccc(Br)c1)C2.Cl` (centres unmarked): the melting point was 285 °C (dec.).

As for `Cc1coc2c1/C(=N/NC(=N)N)CC(c1ccc(F)cc1)C2.Cl` (centres unmarked), the melting point was 277 °C (dec.).

Consider `Cc1ccccc1C1CC(=NNC(=N)N)c2c(C)coc2C1.Cl` (centres unmarked), for which the melting point is 266 °C (dec.).

Take `Cc1ccc(C)c(C2C/C(=N\NC(=N)N)c3c(C)coc3C2)c1.Cl` (centres unmarked): the melting point lay in the range of 235 to 236 °C.

With `Cc1cc2c([nH]1)CC(c1ccccc1)CC2=NNC(=N)N.Cl` (centres unmarked), the melting point is 215 °C (dec.).

For `Cc1coc2c1/C(=N/NC(=N)N)CC(c1ccccc1F)C2.Cl` (centres unmarked), the melting point was 288 °C (dec.).

With `Cc1coc2c1/C(=N/NC(=N)N)CC(c1ccccc1Cl)C2.Cl` (centres unmarked), the melting point is 300 °C (dec.).

`COc1ccccc1C1C/C(=N\NC(=N)N)c2c(C)coc2C1.Cl` (centres unmarked): the melting point is 279 °C (dec.).

In turn, `Cc1coc2c1/C(=N/NC(=N)N)CC(c1ccco1)C2.Cl` (centres unmarked) registered a melting point of at least 300 °C.

Consider `Cc1ccc(C2Cc3occc3/C(=N/NC(=N)N)C2C)s1.Cl` (centres unmarked), for which the melting point was 287 °C (dec.).

`Cl.N=C(N)N/N=C1\CC(c2ccccc2)Cc2occ(C(F)(F)F)c21` (centres unmarked): the melting point is 291 °C (dec.).

With `Cl.N=C(N)N/N=C1\CC(c2ccc(F)cc2)Cc2occ(C(F)(F)F)c21` (centres unmarked), the melting point was 283 °C (dec.).

`Cl.N=C(N)N/N=C1\CC(c2ccccc2Br)Cc2occ(C(F)(F)F)c21` (centres unmarked): the melting point was 289 °C (dec.).

In the case of `CCOC(=O)c1coc2c1/C(=N/NC(=N)N)CC(c1ccccc1)C2.Cl` (centres unmarked), the melting point is 260 °C (dec.).

In the case of `Cc1ccccc1C1CC(=NNC(=N)N)c2c(C)ccnc2C1.Cl` (centres unmarked), the melting point is 218 °C (dec.).

`Cc1ccc(C)c(C2CC(=NNC(=N)N)c3c(C)ccnc3C2)c1.Cl` (centres unmarked) showed a melting point of 260 to 262 °C.

On to `Cc1ccnc2c1C(=NNC(=N)N)CC(c1ccc(F)cc1F)C2.Cl` (centres unmarked), for which the melting point was 286 °C (dec.).

Consider `Cc1ccnc2c1C(=NNC(=N)N)CC(c1cccc(Cl)c1Cl)C2.Cl` (centres unmarked), for which the melting point lay in the range of 270 to 272 °C.

Compound `Cc1ccnc2c1C(=NNC(=N)N)CC(c1c(Cl)cccc1Cl)C2.Cl` (centres unmarked) registered a melting point of at least 300 °C.

As to `COc1ccccc1C1CC(=NNC(=N)N)c2c(C)ccnc2C1.Cl` (centres unmarked), the melting point is 192 °C (dec.).

Compound `Cc1ccc(C2CC(=NNC(=N)N)c3c(C)ccnc3C2)s1.Cl` (centres unmarked) gave a melting point of 271 to 273 °C.

Consider `Cc1ccnc2c1C(=NNC(=N)N)CC(c1ccccn1)C2.Cl` (centres unmarked), for which the melting point was 260 °C (dec.).

Turning to `Cc1ccnc2c1C(=NNC(=N)N)CC(c1ccncc1)C2.Cl` (centres unmarked), the melting point is 267 °C (dec.).

`Cc1ccnc2c1C(=NNC(=N)N)CC(c1ccc(F)cc1)C2.Cl` (centres unmarked): the melting point is 259 °C (dec.).

For `Cc1cn(C)c2c1C(=NNC(=N)N)CC(c1ccccc1)C2.Cl` (centres unmarked), the melting point is 230 °C (dec.).

In turn, `Cc1ccc2c(n1)CC(c1ccccc1)CC2=NNC(=N)N.Cl` (centres unmarked) returned a melting point of at least 300 °C.

As for `Cc1cc(C)c2c(n1)CC(c1ccccc1)CC2=NNC(=N)N.Cl` (centres unmarked), the melting point was 270 °C (dec.).

As to `Cc1cc(C)c2c(n1)CC(c1ccccc1F)CC2=NNC(=N)N.Cl` (centres unmarked), the melting point was 232 °C (dec.).

As to `Cc1cc(C)c2c(n1)CC(c1ccccc1Cl)CC2=NNC(=N)N.Cl` (centres unmarked), the melting point is 227 °C (dec.).

On to `Cc1ccc2c(n1)CC(c1ccccc1C)CC2=NNC(=N)N.Cl` (centres unmarked), for which the melting point was 206 °C (dec.).

As for `Cc1ccccc1C1=CC(=NNC(=N)N)c2c(C)ccnc21.Cl`, the melting point is 203 to 204 °C (dec.).

Regarding `CNC(=N)NN=C1CC(c2ccccc2Cl)Cc2[nH]nc(C)c21.Cl` (centres unmarked), the melting point was 240 °C (dec.).

Take `Cc1ccc(C)c(C2CC(=NNC(=N)NO)c3c(C)ccnc3C2)c1.Cl` (centres unmarked): the melting point is 190 to 192 °C (dec.).

For `Cc1ccnc2c1C(=NNC(=N)NO)CC(c1c(Cl)cccc1Cl)C2.Cl` (centres unmarked), the melting point was 193 to 195 °C (dec.).
